Measured values from patent publication US11970470B1, “{5-chloro-2-(2-(3-(substitutedphenyl)-1,2,4-oxadiazol-5-yl)ethyl)phenyl}(phenyl)methanones as larvicidal agents” (KING FAISAL UNIVERSITY, priority 2023, dated 2024).
Where two headings read alike, the source gives them in different places.

Tests used:
Anopheles arabiensis = assay: Larvicidal screening (WHO protocol), 3rd instar larvae; assay type: in vivo; conditions: for mortality at 4 µg/mL: 4 μg/mL
Method: Anopheles arabiensis was used in the study according to the protocol described by WHO (1975) guidelines in an insectary simulating the temperature (27.5° C.), humidity (70%), and lighting (12/12) of a malaria-endemic environment. One mL of test compound (1 mg/mL) was added to 1 mL of acetone and followed by […] of distilled water to obtain a final concentration of 4 μg/mL. Thirty individuals of 3rd instar larvae were introduced into a container. Negative control was set up using the solvent (acetone) and distilled water, and a positive control included Temephos, which is an active emulsified organophosphate larvicidal used by malaria control programs. Larval mortality was examined for each container separately for 24 h and fed specially made cat food that contained less oil/fat content. The percentage of mortality was determined relative to the initial number of larvae exposed.
Differences in larval mortality between treatments were assessed with generalized linear models using a quasi-Poisson link function. Anopheles arabiensis mortality was the dependent variable, while fixed effects were test compounds and observation period (24 and 48 h). A p-value<0.05 was considered statistically significant. Throughout the text, the results are presented as the adjusted mean±the standard error.

[1] = Anopheles arabiensis larvae exposed for 24 h, read-out: Mortality in % (Mean ± SEM) 24 h
[2] = Anopheles arabiensis larvae exposed for 48 h, read-out: Mortality in % (Mean ± SEM) 48 h

Structure (SMILES)	melting point [°C]	mortality at 4 µg/mL (Anopheles arabiensis; [1]) [%]	mortality at 4 µg/mL (Anopheles arabiensis; [2]) [%]	larval mortality rate in 48 hours (Anopheles arabiensis; in 48 hours, unit not given)
O=C(c1ccccc1)c1cc(Cl)ccc1OCc1nc(-c2ccc(F)cc2)no1 [Compound 5b, {5-Chloro-2-[(3-(4-fluorophenyl)-1,2,4-oxadiazol-5-yl)-methoxy]-phenyl}-(phenyl)-methanone]	–	91.7 ± 1.61	94.7 ± 1.9	–
COc1cc(-c2noc(COc3ccc(Cl)cc3C(=O)c3ccccc3)n2)ccc1F [Compound 5i, {5-Chloro-2-[(3-(4-fluoro-3-methoxyphenyl)-1,2,4-oxadiazol-5-yl)-methoxy]-phenyl}-(phenyl)-methanone]	–	79.5 ± 1.09	84.7 ± 1.88	–
O=C(c1ccccc1)c1cc(Cl)ccc1OCc1nc(-c2ccc(F)c(Cl)c2)no1 [Compound 5f, {5-Chloro-2-[(3-(3-chloro-4-fluorophenyl)-1,2,4-oxadiazol-5-yl)-methoxy]-phenyl}-(phenyl)-methanone]	–	98.2 ± 1.22	100 ± 2.01	100.00±2.01
Cc1cc(-c2noc(COc3ccc(Cl)cc3C(=O)c3ccccc3)n2)ccc1F [Compound 5h, {5-Chloro-2-[(3-(4-fluoro-3-methylphenyl)-1,2,4-oxadiazol-5-yl)-methoxy]-phenyl}-(phenyl)-methanone]	–	83.6 ± 2.01	86.1 ± 1.95	–

Further lines, with some results ahead:

melting point [°C]	Structure (SMILES)	mortality at 4 µg/mL (Anopheles arabiensis; [1]) [%]	mortality at 4 µg/mL (Anopheles arabiensis; [2]) [%]	larval mortality rate in 48 hours (Anopheles arabiensis; in 48 hours, unit not given)
124 to 126	O=C(c1ccccc1)c1cc(Cl)ccc1OCc1nc(-c2ccc(I)cc2)no1 [Compound 5c, {5-chloro-2-[(3-(4-iodophenyl)-1,2,4-oxadiazol-5-yl)-methoxy]-phenyl}-(phenyl)-methanone]	–	–	–
108 to 110	O=C(c1ccccc1)c1cc(Cl)ccc1OCc1nc(-c2ccccc2)no1 [Compound 5a, {5-Chloro-2-[(3-(phenyl)-1,2,4-oxadiazol-5-yl)-methoxy]-phenyl}-(phenyl)-methanone]	–	–	–
80 to 82	CCOc1ccc(-c2noc(COc3ccc(Cl)cc3C(=O)c3ccccc3)n2)cc1 [Compound 5e, {5-Chloro-2-[(3-(4-ethoxyphenyl)-1,2,4-oxadiazol-5-yl)-methoxy]-phenyl}-(phenyl)-methanone]	–	–	–
87 to 89	Cc1cc(F)c(-c2noc(COc3ccc(Cl)cc3C(=O)c3ccccc3)n2)cc1F [Compound 5d, {5-Chloro-2-[(3-(2,5-difluoro-4-methylphenyl)-1,2,4-oxadiazol-5-yl)-methoxy]-phenyl}-(phenyl)-methanone]	–	–	–
110 to 112	CC(C)c1ccc(-c2noc(COc3ccc(Cl)cc3C(=O)c3ccccc3)n2)cc1 [Compound 5g, {5-Chloro-2-[(3-(4-isopropylphenyl)-1,2,4-oxadiazol-5-yl)-methoxy]-phenyl}-(phenyl)-methanone]	–	–	–
